# “Also recorded” adds a separate entry of the source.
# Tests used:
# 15-PGDH (Hpgd) = assay: Senolytic ABT-263 treatment of aged mice: 15-PGDH in muscle; type: in vivo, mouse; conditions: 20 month mice, analyzed 2 months later
# Description: For ABT-263 treatments, 20 month old C57/B16 mice were treated with vehicle (ethanol:polyethylene glycol 400:Phosal 50 PG) or ABT-263 (in ethanol:polyethylene glycol 400:Phosal 50 PG) by oral gavage for 2 cycles of 1 week with a 2 week rest period between cycles as described previously (1). For the Duchenne muscular dystrophy (DMD) mouse model, we used 8-10 month old mdx4cv/mTRKO(G2) generated as previously described (2).
# (§1) For ABT-263 treatments, 20 month old C57/B16 mice were treated with vehicle (ethanol:polyethylene glycol 400:Phosal 50 PG) or 50 mg/kg/day ABT-263 (in ethanol:polyethylene glycol 400:Phosal 50 PG) by oral gavage for 2 cycles of 1 week with a 2 week rest period between cycles as described previously (5). Intramuscular injection of PGE2 was carried out in young mice with either 13 nmol PGE2 (Cayman Chemicals) or vehicle control (PBS) into the TA muscle. Mouse transgenic strains were purchased from The Jackson Laboratory (EP4^flox/flox; EP4O) No. 028102 (6). We validated these genotypes by appropriate PCR-based strategies. Studies were performed with male mice.
# We collected and prepared recipient Tibialis anterior (TA) or gastrocnemius (GA) muscle tissues for histology as previously described (6). […]
# AKT/FOXO pathway = assay: Immunoblots of human myotubes treated with PGE2; type: cell-based; conditions: PGE2 10 ng/ml, 15 or 30 minutes
# Description: Primary murine myoblasts were grown in myogenic cell culture medium containing DMEM/F10 (50:50), 15% FBS, 2.5 ng ml^-1 fibroblast growth factor-2 and 1% penicillin-streptomycin. […] For differentiation experiments, confluent myoblasts were grown in medium containing 5% horse serum, DMEM. […] Total lysates were prepared using lysis buffer (50 mM Tris-HCl pH 7.5, 150 mM NaCl, 4 mM CaCl, 1.5% Triton X-100, protease inhibitors and micrococcal nuclease). […] We used the following antibodies: 15-PGDH (Santa Cruz Biotechnology, cat # sc-271418); phospho-AKT ([…]) (Cell Signaling cat #4060), AKT (Cell signaling cat #2920); phospho-FoxO1 ([…])/FoxO3a ([…]) Antibody (Cell Signaling cat #9464T); Foxo3a (Cell Signaling cat #2497); phospho-CREB (Ser133) (Cell Signaling cat #9198S); phospho-S6 ribosomal protein (Ser235/236) (Cell Signaling cat#4858); SMC1 (Bethyl Laboratories cat# […]). We used HRP conjugated secondary antibodies and developed by incubating the membranes with ECL Western Blotting Substrate (Nacalai USA) and imaging using the ChemiDoc Imaging System (BioRad).
# murine myotubes = assay: Protein synthesis by in vitro SUnSET (puromycin incorporation); type: cell-based, mouse; conditions: PGE2 10 ng/ml daily, 4 d
# Description: The SUnSET assay was used to monitor the rate of protein synthesis as previously described (4). Briefly, 10 min prior harvesting the cells, puromycin was added to culture medium at […]. As a control, cycloheximide to block protein translation was added. Cell extracts were then processed for western blotting using anti-puromycin 12D10 antibody (Millipore).
# [1] = tested on: cyclic AMP response element binding protein (CREB); assay: Immunoblots of muscle lysates after intramuscular PGE2; type: in vivo, mouse; conditions: young mice, 13 nmol i.m., 0, 30 or 60 minutes
# Description: as §1
# Total lysates were prepared using lysis buffer (50 mM Tris-HCl pH 7.5, 150 mM NaCl, 4 mM CaCl, 1.5% Triton X-100, protease inhibitors and micrococcal nuclease). For tissue extracts, lysates were homogenized a FastPrep 24 homogenizer (MP Biomedicals) for 40 seconds at a speed of 6 m/s. We used the following antibodies: 15-PGDH (Santa Cruz Biotechnology, cat # sc-271418); phospho-AKT (Ser 473) (Cell Signaling cat #4060), AKT (Cell signaling cat #2920); phospho-FoxO1 (Thr24)/FoxO3a (Thr32) Antibody (Cell Signaling cat #9464T); Foxo3a (Cell Signaling cat #2497); phospho-CREB (Ser133) (Cell Signaling cat #9198S); phospho-S6 ribosomal protein (Ser235/236) (Cell Signaling cat#4858); SMC1 (Bethyl Laboratories cat# A300-055A-T). […]
# myotubes = assay: Differentiated (starved) cultured myotubes: Atrogin1 expression and diameter; type: cell-based, mouse
# Description: For myotubes we performed fixation using 4% PFA, blocking and permeabilization using PBS/1% BSA/0.1% Triton X-100 and staining with primary antibodies anti-MyHC (Thermo Fisher Scientific, catalog #14-6503-82, clone MF-20, 1:500) and then with AlexaFluor secondary Antibodies (Jackson ImmunoResearch Laboratories, 1:500). We counterstained nuclei with DAPI (Invitrogen).
# Primary myoblasts were grown in myogenic cell culture medium containing DMEM/F10 (50:50), 15% FBS, 2.5 ng ml-1 fibroblast growth factor-2 and 1% penicillin-streptomycin. For differentiation experiments, confluent myoblasts were grown in medium containing 5% horse serum, DMEM. […] Myoblasts were isolated from EP4^fl/fl mice and received either a mCherry/Cre lentivirus or a mock infection as previously described (5).
# For cultured myotubes we performed fixation using 4% PFA, blocking and permeabilization using PBS/1% BSA/0.1% Triton X-100 and staining with primary antibodies anti-MYH (Thermo Fisher Scientific, catalog #14-6503-82, clone MF-20, 1:500) and then with AlexaFluor secondary Antibodies (Jackson ImmunoResearch Laboratories, 1:500). We counterstained nuclei with DAPI (Invitrogen). We acquired images using the KEYENCE BZ-X700 all-in-one fluorescence microscope (Keyence) with 20x/0.75 N.A. objectives. We analyzed the fiber area using the Keyence Advanced Analysis Software. For fiber area the entire maximum cross-sectional area of the muscle was quantified or at least 10 fields of LAMININ or WGA stained myofiber cross-sections encompassing over 400 myofibers were captured for each mouse as above. For fiber typing analysis, the MATLAB application SMASH-Semi-Automatic Muscle Analysis Using Segmentation of Histology, was used as previously described (12). Data analyses were blinded. The researchers performing the imaging acquisition and scoring were unaware of treatment condition given to sample groups analyzed.
# Primary murine myoblasts were grown in myogenic cell culture medium containing DMEM/F10 (50:50), 15% FBS, 2.5 ng ml^−1 fibroblast growth factor-2 and 1% penicillin-streptomycin. […] For differentiation experiments, confluent myoblasts were grown in medium containing 5% horse serum, DMEM.
# INK-ATTAC mice = assay: AP20187 clearance of senescent cells in INK-ATTAC mice; type: in vivo, mouse; conditions: 16-month treatment
# Text: We performed all experiments and protocols in compliance with the institutional guidelines of Stanford University and Administrative Panel on Laboratory Animal Care (APLAC). Middle aged (18-20 mo.) and aged (>24 mo.) mice C57BL/6 were obtained the US National Institute on Aging (NIA) for aged muscle studies, and young (2-4 mo.) wild-type C57BL/6 mice from Jackson Laboratory. INK-ATTAC mice were generated as previously described (1). INK-ATTAC healthspan assessments. INK-ATTAC mice were crossed onto the C57BL6/J genetic background and maintained in specific-pathogen free housing on a 12-hour dark/light cycle for study duration. At 12 months of age, male mice were either utilized for baseline healthspan assessments and terminal muscle harvest or randomized to receive twice-weekly vehicle or AP20187 (2 mg/kg intraperitoneal injection; B/B homodimerizer, Clontech) until assessment and sacrifice at 28 months of age (2). […] Time and distance to exhaustion was performed as previously described (4) for SW-treated mice and their controls.
# We isolated and enriched myogenic cells as previously described (6-9). Briefly, hindlimb muscles were minced and digested using a collagenase and dispase solution by the MACs Dissociator (Miltenyi). Using FACs, for myogenic stem and progenitor cells we isolated cells negative for the hematopoietic lineage and non-muscle cells (CD45-/CD11b-/CD31-/Scal-) and sorted for a7-integrin*cells markers. For macrophages isolation we sorted a7-/Cd11b+/Cd11c-/F4/80^+ populations. For endothelial cells we sorted a7-/Cd11b-/Cd11c/CD31+. We generated and analyzed flow cytometry scatter plots using FlowJo v10.0.
smiles,measurement,setting,value
"CC1(C)CCC(c2ccc(Cl)cc2)=C(CN2CCN(c3ccc(C(=O)NS(=O)(=O)c4ccc(N[C@H](CCN5CCOCC5)CSc5ccccc5)c(S(=O)(=O)C(F)(F)F)c4)cc3)CC2)C1 [ABT-263, navitoclax]",15-PGDH (Hpgd) mRNA / gene expression levels in muscle,"15-PGDH (Hpgd); 50 mg/kg/day oral gavage, 2 cycles, 50 mg/kg/day",reduced; also recorded: markedly decreased
same,percentage of cells expressing 15-PGDH by immunohistochemistry,15-PGDH (Hpgd),markedly decreased
"CCCCC[C@H](O)/C=C/[C@H]1[C@H](O)CC(=O)[C@@H]1C/C=C\CCCC(=O)O [PGE2, Prostaglandin E2]",FOXO (pFOXO3a),AKT/FOXO pathway,inactivated
same,pAKT levels,AKT/FOXO pathway,increased levels
same,phospho-S6 ribosomal protein (pS6rp),AKT/FOXO pathway,activated
same,protein synthesis quantified by puromycin incorporation,murine myotubes,increased
same,CREB activation in skeletal muscles,[1],activates; also recorded: activation
same,myotube diameter,"myotubes; starved (24 hr) or non-starved myotubes, PGE2 10 ng/ml, SW 1 μM",increased; also recorded: marked increase
same,Atrogin1 expression,"myotubes; starved myotubes, PGE2 10 ng/ml",greatly decreased
CC[C@H](C(=O)N1CCCC[C@H]1C(=O)O[C@H](CCc1ccc(OC)c(OC)c1)c1cccc(OCC(=O)NCC(CNC(=O)COc2cccc([C@@H](CCc3ccc(OC)c(OC)c3)OC(=O)[C@@H]3CCCCN3C(=O)[C@@H](CC)c3cc(OC)c(OC)c(OC)c3)c2)CN(C)C)c1)c1cc(OC)c(OC)c(OC)c1 [AP],15-PGDH levels in FACS isolated macrophages,INK-ATTAC mice,reduced levels
same,PGE2 levels in muscle by LC-MS/MS,INK-ATTAC mice,increase
same,15-PGDH transcript levels in muscle,INK-ATTAC mice; 2 mg/kg i.p. twice weekly,markedly reduced
same,endurance (distance run on a treadmill until exhaustion and body weight),INK-ATTAC mice; 28 months,increase
same,grip strength,INK-ATTAC mice; 28 months,increase
same,hindlimb muscle mass (TA and GA),INK-ATTAC mice; 28 months,increase
CC(C(=O)Nc1cc(C#N)ccc1CCCC(=O)O)c1ccc(F)c2ccccc12 (stereo not shown) [ONO-AE3-208],PGE2-induced increase of myotube diameter in the presence of the antagonist,myotubes; ONO-AE3-208 1 μM with PGE2 10 ng/ml,abrogated; also recorded: not seen

# Reference: patent publication US20220304992A1, “METHODS OF REJUVENATING AGED TISSUE BY INHIBITING 15-HYDROXYPROSTAGLANDIN DEHYDROGENASE (15-PGDH)” (The Board of Trustees of the Leland Stanford Junior …, priority 2019, published 2022)
